# Target: T1, hFXR (Homo sapiens, UniProt Q96RI1)
# T1 construct: expressed in transfected cells; host or cells: CV-1 cells
# T1 sequence (Q96RI1 1-486): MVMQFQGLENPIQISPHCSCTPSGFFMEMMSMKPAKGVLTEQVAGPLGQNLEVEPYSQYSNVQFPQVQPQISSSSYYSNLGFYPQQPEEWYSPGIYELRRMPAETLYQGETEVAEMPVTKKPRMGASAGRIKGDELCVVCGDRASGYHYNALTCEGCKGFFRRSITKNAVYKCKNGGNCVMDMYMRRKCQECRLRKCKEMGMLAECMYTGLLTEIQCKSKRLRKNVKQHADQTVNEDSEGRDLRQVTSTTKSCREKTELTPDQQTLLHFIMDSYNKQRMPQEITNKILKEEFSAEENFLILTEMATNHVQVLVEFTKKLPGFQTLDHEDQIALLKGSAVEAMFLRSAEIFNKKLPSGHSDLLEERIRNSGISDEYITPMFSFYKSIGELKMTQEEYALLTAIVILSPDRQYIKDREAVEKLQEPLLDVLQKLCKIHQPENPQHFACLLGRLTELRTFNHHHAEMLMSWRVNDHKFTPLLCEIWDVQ
# T1 sequence (P19793 1-462 partner): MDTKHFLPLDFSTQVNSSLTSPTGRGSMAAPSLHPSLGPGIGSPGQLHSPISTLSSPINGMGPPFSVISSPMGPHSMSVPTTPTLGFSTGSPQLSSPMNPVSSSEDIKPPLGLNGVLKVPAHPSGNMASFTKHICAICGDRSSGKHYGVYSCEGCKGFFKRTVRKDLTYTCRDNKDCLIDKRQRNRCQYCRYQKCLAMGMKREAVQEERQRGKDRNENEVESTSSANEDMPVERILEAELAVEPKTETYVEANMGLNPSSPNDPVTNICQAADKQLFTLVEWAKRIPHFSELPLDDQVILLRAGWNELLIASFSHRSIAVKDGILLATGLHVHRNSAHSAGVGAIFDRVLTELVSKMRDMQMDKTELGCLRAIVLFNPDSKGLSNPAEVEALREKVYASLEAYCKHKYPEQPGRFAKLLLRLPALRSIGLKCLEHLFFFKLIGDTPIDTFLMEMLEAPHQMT
# Test: In Vitro FXR Assay (TK): TK-ECRE-luc reporter in transfected CV-1 cells
# Type: cell-based
# Conditions: 18 hrs, luminescence, maximum efficacy of <25% of the Fexarmine control classified as '+'
# Method in brief: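 Cells are seeded in charcoal double-stripped FBS medium, transfected overnight with FXR/RXR expression and ECRE-driven luciferase reporter plasmids, then treated with serially diluted compounds for 18 h. Lysates are measured for luciferase light output.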
row,EC50 [nM],Compound
1,≤ 250,"COc1ccc([C@H]2CC[C@H](CN(c3cccc(-c4cnc(C5CC5)s4)c3)C(=O)[C@H]3CC[C@H](N(C)C(C)=O)CC3)CC2)cc1C [Compound 25.10, trans-N-(3-(2-Cyclopropylthiazol-5-yl)phenyl)-N-((trans-4-(4-methoxy-3-methylphenyl)cyclohexyl)methyl)-4-(N-methylacetamido) cyclohexanecarboxamide]"
2,≤ 250,"CNC(=O)O[C@H]1CC[C@H](C(=O)N(C[C@H]2CC[C@H](c3ccc(N(C)C)nc3)CC2)c2cccc(-c3coc(C4CC4)n3)c2)CC1 [Compound 3.05, trans-4-((3-(2-Cyclopropyloxazol-4-yl)phenyl)((trans-4-(6-(dimethylamino)pyridine-3-yl)cyclohexyl)methyl)carbamoyl)cyclohexyl methylcarbamate]"
3,≤ 250,"COc1ccc([C@H]2CC[C@H](CN(c3cc(-c4coc(C5CC5)n4)ccn3)C(=O)[C@H]3CC[C@H](OC(=O)NCCO)CC3)CC2)nc1C [Compound 4.24, trans-4-((4-(2-Cyclopropyloxazol-4-yl)pyridine-2-yl)((trans-4-(5-methoxy-6-methylpyridin-2-yl)cyclohexyl)methyl)carbamoyl)cyclohexyl (2-hydroxyethyl)carbamate]"
4,≤ 250,"CNC(=O)O[C@H]1CC[C@H](C(=O)N(CC23CCC(c4ccc(OC)c(C)c4)(CC2)CC3)c2cc(-c3cnc(C4CC4)s3)ccn2)CC1 [Compound 2.03, 4-((4-(2-Cyclopropylthiazol-5-yl)pyridin-2-yl)((4-(4-methoxy-3-methylphenyl)bicyclo[2.2.2]octan-1-yl)methyl)carbamoyl)cyclohexyl trans-methylcarbamate]"
5,≤ 250,"CNC(=O)O[C@H]1CC[C@H](C(=O)N(C[C@H]2CC[C@H](c3ccc(OC)c(C)n3)CC2)c2cccc(-c3cnn(C4CCC4)c3)c2)CC1 [Compound 5.21, trans-4-((3-(1-Cyclobutyl-1H-pyrazol-4-yl)phenyl)((trans-4-(5-methoxy-6-methylpyridin-2-yl)cyclohexyl)methyl)carbamoyl)cyclohexyl methylcarbamate]"
6,≤ 250,"CCCOC1CN(C(=O)O[C@H]2CC[C@H](C(=O)N(C[C@H]3CC[C@H](c4ccc(OC)c(C)n4)CC3)c3cc(-c4coc(C5CC5)n4)ccn3)CC2)C1 [Compound 7.104, trans-4-((4-(2-Cyclopropyloxazol-4-yl)pyridine-2-yl)((trans-4-(5-methoxy-6-methylpyridin-2-yl)cyclohexyl)methyl)carbamoyl)cyclohexyl 3-propoxyazetidine-1-carboxylate]"
7,≤ 250,"CCOC(=O)C[C@H]1CC[C@H](C(=O)N(C[C@H]2CC[C@H](c3ccc(OC)c(C)n3)CC2)c2cc(-c3cnn(C4CC4)c3)ccn2)CC1 [Compound 18.18, Ethyl 2-(trans-4-((4-(1-cyclopropyl-1H-pyrazol-4-yl)pyridin-2-yl)((trans-4-(5-methoxy-6-methylpyridin-2-yl)cyclohexyl)methyl)carbamoyl)cyclohexyl)acetate]"
8,250 to 1000,"COc1ccc([C@H]2CC[C@H](CN(c3cccc(-c4cnn(C5CC5)c4)c3)C(=O)[C@H]3CC[C@H](C(=O)OCCC(C)C)CC3)CC2)cc1C [Compound 22.05, trans-Isopentyl 4-((3-(1-cyclopropyl-1H-pyrazol-4-yl)phenyl)((trans-4-(4-methoxy-3-methylphenyl)cyclohexyl)methyl)carbamoyl) cyclohexanecarboxylate]"
9,≤ 250,"COc1ccc([C@H]2CC[C@H](CN(c3cccc(-c4coc(C(C)C)n4)c3)C(=O)[C@H]3CC[C@H](OC(=O)N4CC(O)C4)CC3)CC2)cc1C [Compound 7.64, trans-4-((3-(2-Isopropyloxazol-4-yl)phenyl)((trans-4-(4-methoxy-3-methylphenyl)cyclohexyl)methyl)carbamoyl)cyclohexyl 3-hydroxyazetidine-1-carboxylate]"
10,≤ 250,"COc1ccc([C@H]2CC[C@H](CN(c3cccc(-c4cnc(C(C)C)s4)c3)C(=O)[C@H]3CC[C@H](OC(=O)N4CC(O)C4)CC3)CC2)nc1C [Compound 7.05, trans-4-((3-(2-Isopropylthiazol-5-yl)phenyl)((trans-4-(5-methoxy-6-methylpyridin-2-yl)cyclohexyl)methyl)carbamoyl)cyclohexyl 3-hydroxyazetidine-1-carboxylate]"
11,≤ 250,"CN(C)c1ccc([C@H]2CC[C@H](CN(c3cccc(-c4cnc(C5CC5)s4)c3)C(=O)[C@H]3CC[C@H](CC(=O)O)CC3)CC2)cn1 [Compound 20.06, 2-(trans-4-((3-(2-Cyclopropylthiazol-5-yl)phenyl)((trans-4-(6-(dimethylamino)pyridin-3-yl)cyclohexyl)methyl)carbamoyl)cyclohexyl)acetic acid]"
12,≤ 250,"COc1ccc([C@H]2CC[C@H](CN(c3cc(-c4coc(C5CC5)n4)ccn3)C(=O)[C@H]3CC[C@H](OC(=O)N4CC(CO)C4)CC3)CC2)nc1C [Compound 7.80, trans-4-(4-(2-Cyclopropyloxazol-4-yl)pyridine-2-yl)((trans-4-(5-methoxy-6-methylpyridin-2-yl)cyclohexyl)methyl) carbamoyl)cyclohexyl 3-(hydroxymethyl)azetidine-1-carboxylate]"
13,≤ 250,"CCC1CN(C(=O)O[C@H]2CC[C@H](C(=O)N(C[C@H]3CC[C@H](c4ccc(OC)c(C#N)c4)CC3)c3cc(-c4cnn(C(C)C)c4)ccn3)CC2)C1 [Compound 7.47, trans-4-(((trans-4-(3-Cyano-4-methoxyphenyl)cyclohexyl)methyl)(4-(1-isopropyl-1H-pyrazol-4-yl)pyridin-2-yl)carbamoyl)cyclohexyl 3-ethylazetidine-1-carboxylate]"
14,≤ 250,"COc1ncc(-c2cccc(N(C[C@H]3CC[C@H](c4ccc(OC)c(C)c4)CC3)C(=O)[C@H]3CC[C@H](C(=O)OC)CC3)c2)s1 [Compound 18.07, trans-Methyl 4-(((trans-4-(4-methoxy-3-methylphenyl)cyclohexyl)methyl)(3-(2-methoxythiazol-5-yl)phenyl)carbamoyl)cyclohexanecarboxylate]"
15,≤ 250,"COc1ccc([C@H]2CC[C@H](CN(c3cccc(-c4cnn(C5CC5)c4)c3)C(=O)[C@H]3CC[C@H](NC(=O)CO)CC3)CC2)cc1C [Compound 26.03, trans-N-(3-(1-Cyclopropyl-1H-pyrazol-4-yl)phenyl)-4-(2-hydroxyacetamido)-N-((trans-4-(4-methoxy-3-methylphenyl)cyclohexyl)methyl) cyclohexanecarboxamide]"
16,≤ 250,"COC(=O)CNC(=O)O[C@H]1CC[C@H](C(=O)N(C[C@H]2CC[C@H](c3ccc(OC)c(C)c3)CC2)c2cccc(-c3cnn(C4CC4)c3)c2)CC1 [Compound 7.17, Methyl 2-((((trans-4-((3-(1-cyclopropyl-1H-pyrazol-4-yl)phenyl)((trans-4-(4-methoxy-3-methylphenyl)cyclohexyl)methyl)carbamoyl)cyclohexyl)oxy)carbonyl)amino)acetate]"
17,≤ 250,"COc1ccc([C@H]2CC[C@H](CN(c3cccc(-c4coc(C5CC5)n4)c3)C(=O)[C@H]3CC[C@H](OC(=O)N4CC(O)C4)CC3)CC2)nc1C#N [Compound 7.70, trans-4-(((trans-4-(6-Cyano-5-methoxypyridin-2-yl)cyclohexyl)methyl)(3-(2-cyclopropyloxazol-4-yl)phenyl)carbamoyl)cyclohexyl 3-hydroxyazetidine-1-carboxylate]"
18,≤ 250,"COc1ccc([C@H]2CC[C@H](CN(c3cc(-c4cnn(C(C)C)c4)ccn3)C(=O)[C@H]3CC[C@H](OC(=O)NC(C)C)CC3)CC2)nc1C#N [Compound 6.32, trans-4-(((trans-4-(6-Cyano-5-methoxypyridin-2-yl)cyclohexyl)methyl) (4-(1-isopropyl-1H-pyrazol-4-yl)pyridin-2-yl)carbamoyl)cyclohexyl isopropylcarbamate]"
19,≤ 250,"COc1ccc([C@H]2CC[C@H](CN(c3cc(-c4coc(C5CC5)n4)ccn3)C(=O)[C@H]3CC[C@H](OC(=O)N4CC(N5CC(O)C5)C4)CC3)CC2)nc1C [Compound 7.108, trans-4-((4-(2-Cyclopropyloxazol-4-yl)pyridin-2-yl)((trans-4-(5-methoxy-6-methylpyridin-2-yl)cyclohexyl)methyl)carbamoyl)cyclohexyl 3-hydroxy-[1,3′-biazetidine]-1′-carboxylate]"
20,≤ 250,"COc1ccc([C@H]2CC[C@H](CN(c3cc(-c4coc(C5CC5)n4)ccn3)C(=O)[C@H]3CC[C@H](NC(=O)COC(C)=O)CC3)CC2)cc1C [Compound 26.17, 2-((trans-4-((4-(2-cyclopropyloxazol-4-yl)pyridine-2-yl)((trans-4-(4-methoxy-3-methylphenyl)cyclohexyl)methyl)carbamoyl)cyclohexyl)amino)-2-oxoethyl acetate]"

# Source: patent US20220089575A1, “FARNESOID X RECEPTOR AGONISTS AND USES THEREOF” (Metacrine, Inc., priority 2017, published 2022)
